Reference: US20090075921A1, “Bone/joint disease sensitivity gene and use thereof” (Riken, priority 2004, published 2009)
d = 2'-deoxy (DNA); r = 2'-OH (RNA)

Tests used:
[1] = system: NHAC; assay: Asporin-specific siRNA transfection in NHAC, gene expression; assay type: cell-based, human; details: 24 hours, medium with 10 ng/ml TGF-β1
Procedure: Asporin-specific siRNA (Si9: […]; SEQ ID NO:35) was designed using an siRNA design support system in Takara Shuzo's website (http://www.takara-bio.co.jp/rnai/intro/htm). […] Cells were inoculated to a 12-well plate at 5×10^5 cells/well, and cultured in a DMEM/F12 containing 10% FBS, ITS, 10 ng/ml TGF-β1 and penicillin/streptomycin for 24 hours, and siRNA transfection was performed using TransIT-TKO (Takara Shuzo). Total RNA was extracted from the cells after 24 hours of cultivation, and examined for the expression of the type II collagen, aggrecan and TGF-β1 genes. […] Therefore, endogenous asporin was thought to negatively regulate the expression of cartilage substrate and the expression of TGF-β1 in NHAC.

[2] = system: NHAC; assay: Effects of SB431542 on gene expression induction by TGF-β1 in NHAC; assay type: cell-based, human; details: SB431542 10 μM added 30 minutes before TGF-β1 10 ng/ml, 12 hours
Procedure: A time course of the expression of the asporin gene by TGF-β1 in NHAC was examined as described below. Cells were inoculated to a 12-well plate at 1×10^5 cells/well, and cultured in a DMEM/F12 containing 10% FBS until they became confluent. The medium was exchanged with a DMEM/F12 containing 0.2% FBS, and the cells were cultured for 24 hours, after which TGF-β1 (10 ng/ml) was added, total RNA was extracted over time, and the expression levels of the asporin and GAPDH genes were examined. As a result, the expression level of the asporin gene maximized when the cells were cultured in the presence of TGF-β1 (10 ng/ml) for 12 hours, and thereafter the expression level decreased over time (FIG. 46).
In the experimental system for asporin gene expression induction by TGF-β1 used in the method described in Example 54, the effects of SB431542 (Sigma) (10 μM), an inhibitor of TGF-β1 type 1 receptor phosphorylation, on the induction of the expression of the asporin, type II collagen, aggrecan, and TGF-β1 genes (12 hours), when added 30 minutes before addition of TGF-β1 (10 ng/ml), were examined.

Molecule	expression of the type II collagen, aggrecan and TGF-β1 genes [1]	induction by TGF-β1 of the expression of the asporin, type II collagen, aggrecan, and TGF-β1 genes [2]
UCCCUUCAGGAUUACCAGATT (siRNA; sugars from the 5' end r19 d2, backbone not given here) [asporin-specific siRNA]	significantly increased	–
NC(=O)c1ccc(-c2nc(-c3ccc4c(c3)OCO4)c(-c3ccccn3)[nH]2)cc1 [SB431542]	–	inhibited the induction by TGF-β1 of the expression of these genes
